Measurements taken from article PMC3446762 (Viruses, 2012).

Key:
EBOV = details: 20 µM; cited from earlier work
host cells = details: cited from earlier work
HeLa cells [1] = details: human
HeLa cells [2] = details: human; remark: listed apart in the source
MARV Ci67 isolate = type: cell-based, Marburg (MARV)
EBOV Zaire-95 isolate = type: cell-based, Ebola (EBOV)

| Compound | EBOV inhibition (EBOV) [%] | toxicity to host cells (host cells) | cellular toxicity (reduction in cell number), EBOV assay (HeLa cells [1]) | cellular toxicity (reduction in cell number), MARV assay (HeLa cells [2]) | cellular protection during MARV infection (MARV Ci67 isolate) [%] | cellular protection during EBOV infection (EBOV Zaire-95 isolate) [%] |
| --- | --- | --- | --- | --- | --- | --- |
| Cc1cc(NCCN2CCOCC2)c2c(ccc3c2ccc2nc(C)cc(NCCN4CCOCC4)c23)n1 [Compound 1] | 53 | non-toxic to host cells | – | – | – | – |
| CCN(CC)CCCNc1cc(C)nc2ccc3c(ccc4nc(C)cc(NCCCN(CC)CC)c43)c12 [Compound 2] | 13 | toxic to host cells | – | – | – | – |
| CCN(CC)CCCNc1ccnc2ccc3c(ccc4nccc(NCCCN(CC)CC)c43)c12 [Compound 4] | – | – | 80–90% | 80–90% | 100 | 100 |
